“And” between values parts separate entries of the source, which are not always exact repeats. Identical values can stand only once.
Tests used:
10DM24 deoxyribozyme [1] = assay: Ligation of GTP or pppGpG in presence of shorter cofactor RΔΔ; assay type: biochemical
Description: It was subsequently shown that a binding site for an NTP cofactor can be located adjacent to the substrate binding site. This was achieved by removing an additional nucleotide from the RΔ cofactor, forming the shorter RΔΔ cofactor which required two added nucleotides to reconstitute the complete P4 region (FIG. 10). The 10DM24-catalyzed ligation reaction of GTP in the presence of the two-nucleotide short cofactor RΔΔ was performed with the 5′-^32P-labeled RNA substrate (L) that provides the branch-site adenosine as the limiting reagent. For kinetic assays, the ratio of L:E:RΔΔ was 1:10:30 with 0.25 μM deoxyribozyme (E). For isolation of the reaction products, the ratio L:E:RΔΔ was 1:2:3 with 1.5 μM deoxyribozyme. The reaction was performed under the enhanced incubation conditions with 20 mM GTP and 150 mM MgCl2 in 100 mM CHES, pH 9.0, 150 mM NaCl, and 2 mM KCl at 37° C. for up to 7 hours. […] Both products were isolated and shown by partial alkaline hydrolysis to be branched with the connectivities A-G and A-GG (where A is the branch-site adenosine).
It was contemplated that the new A-GG product was formed by initial templated but otherwise uncatalyzed synthesis of a GG dinucleotide (i.e., pppGpG) from two GTP molecules, followed by 10DM24-catalyzed branch formation using this dinucleotide. […] The reaction was performed under the enhanced incubation conditions of 20 mM GTP and 150 mM MgCl2. […] The pppGpG dinucleotide was synthesized independently using T7 RNA polymerase (Huang, et al. (1998) supra) and led solely to the A-GG product. Although the pppGpG substrate had Kd,app of >1 mM with RΔΔ, similar to Kd,app for GTP with RΔ, the ligation reaction with pppGpG and RΔΔ had kobs six-fold higher than for the analogous reaction with GTP and RΔ (Table 8).
(§1) Similar experiments were performed using the mutant 10DM24 deoxyribozyme that has CTTT rather than CCTT in the P4 region (FIG. 11). For the DNA-catalyzed ligation of pppGpG, the 5′-^32P-labeled RNA with the branch-site adenosine (L) was incubated with the 10DM24 deoxyribozyme (E) and the cofactor RΔΔ in the ratio of L:E:RΔΔ=1:10:30 in the presence of 1 mM pppGpG and 40 mM MgCl2 in 100 mM CHES pH 9.0, 150 mM NaCl, and 2 mM KCl at 37° C. The analysis of the ligation reaction was performed as described herein. […] This is consistent with the model that pppGpG and the first two nucleotides of RΔΔ together reconstitute the P4 helix. When the ligation reaction with pppGpG was tested in the presence of RΔ instead of RΔΔ, the ligation product A-GG was formed, but with a 10-fold decrease in kobs (squares in FIG. 11). Because RΔ provides an extraneous G nucleotide when combined with pppGpG (see legend of FIG. 11), some disruption in activity is perhaps anticipated. […] This is consistent with the observation that GTP was also not a substrate for the 10DM24-C44T mutant deoxyribozyme.
The ligation reaction of pppGpG was also performed using a variety of pppGpG concentrations with the parent 10DM24 deoxyribozyme in the presence of RΔΔ and 40 mM MgCl2. In FIG. 12, the kobs values are plotted versus [pppGpG] and fit to kobs=kmax·[pppGpG]/(Kd,app+[pppGpG]). The Kd,app for pppGpG was >1 mM.

10DM24 deoxyribozyme [2] = assay: Multiple-turnover ligation of GTP; assay type: biochemical
Description: In contrast, upon 10DM24-catalyzed reaction of the oligoribonucleotide 2′-hydroxyl group with the NTP substrate, the binding affinity of the RNA for the deoxyribozyme was not expected to increase substantially. Thus, the capability of the engineered 10DM24 deoxyribozyme to catalyze the multiple-turnover ligation of GTP was examined. The 10DM24 deoxyribozyme was the limiting reagent, with the RNA substrate that provides the branch-site adenosine (L) in 10-fold excess over the deoxyribozyme (L:E:RΔ=10:1:3). The reaction was performed under the standard incubation conditions described herein using 1 mM GTP and 40 mM MgCl2 at 37° C. After 5 hours, the product yield was 50%, corresponding to 5 turnovers. Accordingly, with GTP as substrate, multiple-turnover behavior was shown using an RNA ligase deoxyribozyme.

10DM24 deoxyribozyme [3] = assay: 10DM24-catalyzed ligation of small-molecule NTP substrate to branch-site adenosine of RNA substrate L with cofactor RΔ; assay type: biochemical; conditions: for krel = kobs,NTP*/kobs,NTP: relative to GTP
Description: (§2) General Description of Kinetic Assays. All kinetic assays with the 10DM24 deoxyribozyme and its variants were performed according to established methods (Flynn-Charlebois, et al. (2003) supra; Wang and Silverman (2003) supra). The 5′-^32P-labeled RNA substrate (L for “left-hand substrate”) that provides the branch-site adenosine was the limiting reagent relative to 10DM24 (E) and the truncated cofactor RNA (RΔ; R originally derived from “right-hand substrate”). The ratio L:E:RΔ was 1:10:30, with 0.25 μM 10DM24. The cofactor RΔ was 5′-phosphorylated unless otherwise stated. The RNA substrate L, deoxyribozyme 10DM24 and cofactor RΔ were annealed in 5 mM HEPES, pH 7.5, 15 mM NaCl, 0.1 mM EDTA by heating at 95° C. for 3 minutes and cooling on ice for 5 minutes. The ligation reactions were performed with the appropriate concentration of NTP substrate (0.05-50 mM) at a final buffer concentration of 100 mM CHES, pH 9.0, 150 mM NaCl, 2 mM KCl, and 40-400 mM MgCl2 at 37° C. for up to 5 hours. The combination of 1 mM NTP and 40 mM MgCl2 was defined as “standard incubation conditions”; 10 mM NTP and 150 mM MgCl2 was defined as “enhanced incubation conditions”. At appropriate timepoints, aliquots were removed from the sample, quenched into stop solution (80% formamide, 1× TB [89 mM each Tris and boric acid, pH 8.3], and 50 mM EDTA containing 0.025% bromophenol blue and xylene cyanol) and stored at −20° C. prior to analysis. Samples were separated by 20% denaturing PAGE at 30 W for 115 minutes and imaged with a PHOSPHORIMAGER. The resulting data were fit to the equation yield=Y·(1−e^−kt), where k=kobs and Y=final yield.
Use of Free NTPs as Substrates. It was determined whether 10DM24 could catalyze ligation with free GTP as a substrate (see FIG. 1B), thereby transferring guanosine 5′-monophosphate (GMP) to the branch-site adenosine 2′-hydroxyl group. When RΔ, an oligoribonucleotide cofactor that corresponds to all of the remaining nucleotides of R, was added to 10DM24 along with GTP, ligation was efficient (FIG. 8; 94% yield in 5 hours and kobs 0.034 min^−1 under the standard incubation conditions of 1 mM GTP and 40 mM MgCl2 at pH 9.0, 37° C.). The RNA product with the single added guanosine at the branch-site adenosine was PAGE-purified and the identity confirmed by partial alkaline hydrolysis (50 mM NaHCO3 at 95° C. for 5 minutes) and MALDI mass spectrometry (m/z calcd. 5433, found 5437±5).

[4] = system: 10DM24-C44T mutant deoxyribozyme; assay: Ligation of NTP substrate with 10DM24 variant in which the terminal P4 nucleotide is changed C→T, cofactor RΔ; assay type: biochemical; conditions: for krel = kobs,NTP*/kobs,NTP: relative to ATP
Description: as §2
Focus was then placed on the purine NTPs (GTP, ATP) and their derivatives. When 1 mM ATP was provided as a small molecule substrate in place of GTP using the original 10DM24 sequence and RΔ, no reaction was observed (<1% in 5 hours). […] Furthermore, the kobs increased sixteen-fold to 0.013 min^−1 under enhanced conditions with 10 mM ATP (82% yield in 3 hours).

10DM24 variant = assay: Ligation of ATP as substrate and cofactor with RΔΔ, P4 nucleotides 43 and 44 changed CC→TT; assay type: biochemical; conditions: 20 mM ATP, 150 mM MgCl2, RΔΔ
glmS riboswitch = conditions: read-out: Kd,app; cited from earlier work
[5] = system: 10DM24-C44T mutant deoxyribozyme; assay: Ligation of pppGpG, first DNA nucleotide in P4 (nucleotide 44) changed C→T; assay type: biochemical; conditions: 1 mM pppGpG, RΔΔ, 40 mM MgCl2
Description: as §1

[6] = system: mutant 10DM24 deoxyribozyme that has CTTT rather than CCTT in the P4 region; assay: Ligation of pppGpG, second deoxyribozyme nucleotide in P4 mutated C→T; assay type: biochemical; conditions: 1 mM pppGpG, RΔΔ, 40 mM MgCl2
Description: as §1

[7] = enhanced incubation conditions, 3 h

## Nc1nc2c(ncn2[C@@H]2O[C@H](COP(=O)(O)OP(=O)(O)OP(=O)(O)O)[C@@H](O)[C@H]2O)c(=O)[nH]1 [GTP, guanosine 5′-triphosphate]
10DM24 deoxyribozyme [1]; 20 mM GTP + RΔΔ, 150 mM Mg2+
  kobs: 0.0008 min⁻¹
10DM24 deoxyribozyme [1]; RΔΔ cofactor, 20 mM NTP and 150 mM MgCl2, pH 9.0, 37° C.
  reaction products formed: two reaction products
10DM24 deoxyribozyme [2]; L:E:RΔ=10:1:3, 1 mM GTP, 40 mM MgCl2, 37° C., 5 hours
  product yield: 50%
10DM24 deoxyribozyme [2]; after 5 hours, L in 10-fold excess over deoxyribozyme
  turnovers: 5
10DM24 deoxyribozyme [3]; GTP series
  kobs,enh/kobs,std: 8
10DM24 deoxyribozyme [3]; [7]
  ligation yield %, 3 h: 94%
10DM24 deoxyribozyme [3]; enhanced incubation conditions: 10 mM NTP, 150 mM MgCl2, 100 mM CHES pH 9.0, 37° C.
  kobs: 0.26 min⁻¹ and 0.262 min⁻¹
10DM24 deoxyribozyme [3]; enhanced incubation conditions
  krel = kobs,NTP*/kobs,NTP: (1)
10DM24 deoxyribozyme [3]; from plot of kobs versus [GTP], RΔ, read-out: Kd,app
  Kd: > 1000 µM
10DM24 deoxyribozyme [3]; standard incubation conditions
  ligation yield %, 5 h: 94%
  krel = kobs,NTP*/kobs,NTP: (1)
10DM24 deoxyribozyme [3]; standard incubation conditions: 1 mM NTP, 40 mM MgCl2, 100 mM CHES pH 9.0, 150 mM NaCl, 2 mM KCl, 37° C., RΔ
  kobs: 0.034 min⁻¹
[4]; standard incubation conditions
  ligation yield %, 5 h: < 1%

## Nc1ncnc2c1ncn2[C@@H]1O[C@H](COP(=O)(O)OP(=O)(O)OP(=O)(O)O)[C@@H](O)[C@H]1O [ATP]
10DM24 variant
  ligation product formed: a small amount of the ATP ligation product
10DM24 deoxyribozyme [3]; standard incubation conditions
  ligation yield %, 5 h: < 1%
[4]; ATP series
  kobs,enh/kobs,std: 16
[4]; [7]
  ligation yield %, 3 h: 82%
[4]; enhanced incubation conditions: 10 mM NTP, 150 mM MgCl2, pH 9.0, 37° C.
  kobs: 0.013 min⁻¹
[4]; enhanced incubation conditions
  krel = kobs,NTP*/kobs,NTP: (1)
[4]; standard incubation conditions
  ligation yield %, 5 h: 33%
  krel = kobs,NTP*/kobs,NTP: (1)
[4]; standard incubation conditions: 1 mM NTP, 40 mM MgCl2, pH 9.0, 37° C., RΔ, ATP series
  kobs: 0.0008 min⁻¹

## N[C@H]1C(O)O[C@H](COP(=O)(O)O)[C@@H](O)[C@@H]1O (some centres unmarked) [glucosamine 6-phosphate]
glmS riboswitch
  Kd: 200 µM

## Nc1nc2c(ncn2[C@@H]2O[C@H](COP(=O)(O)O[C@H]3[C@@H](O)[C@H](n4cnc5c(=O)[nH]c(N)nc54)O[C@@H]3COP(=O)(O)OP(=O)(O)OP(=O)(O)O)[C@@H](O)[C@H]2O)c(=O)[nH]1 [pppGpG]
10DM24 deoxyribozyme [1]; 1 mM pppGpG + RΔΔ, 40 mM Mg2+
  kobs: 0.19 min⁻¹
10DM24 deoxyribozyme [1]; 1 mM pppGpG, 40 mM MgCl2, in the absence of RΔΔ
  product formation: no product formation was observed
10DM24 deoxyribozyme [1]; in the presence of RΔ instead of RΔΔ
  decrease in kobs: 10 fold
10DM24 deoxyribozyme [1]; with RΔΔ, 40 mM Mg2+, pH 9.0, 37° C., read-out: Kd,app
  Kd: > 1000 µM
[5]
  product formation: No product formation was observed
[6]
  decrease in kobs: 130 fold

— patent US20080207885A1, “Method for site-specific labeling of RNA using a deoxyribozyme” (priority 2007, published 2008)
